From ChEMBL document CHEMBL5518180, “Design, synthesis, and biological evaluation of harmine derivatives as topoisomerase I inhibitors for cancer treatment” (Eur J Med Chem, 2024)
The source made the active and inactive calls. The calls are words filed in the database; no cut-off is given here.

Legend:
4T1 [1] = assay: Antitumor activity against mouse 4T1 cells transplanted in BALB/c mouse assessed as tumor growth inhibition rate at 20 mg/kg, ip administered for 14 days relative to control; assay type: functional; details: 4T1, 336 h, time 14 day, read-out: TGI
[2] = Toxicity in BALB/c mouse transplanted with […] cells assessed as spleen damage at 5 to 20 mg/kg, ip administered for 14 days by hematoxylin and eosin staining based analysis; assay type: organism-based; details: in vivo, 336 h, dose 5-20 mg/kg, time 14 day
MCF7 [3] = assay: Antimigratory activity against human MCF7 cells assessed as reduction in penetration of cells in transwell membrane at 0.125 to 0.5 uM incubated for 24 hrs by crystal violet staining based inverted fluorescence microscopic analysis; assay type: functional, cell-based; details: dose 0.125-0.5 µM
MCF7 [4] = assay: Induction of apoptosis in human MCF7 cells assessed as necrotic cells at 0.1 uM incubated for 24 hrs by Annexin V-FITC/Propidium Iodide staining based flow cytometry analysis (reference value: 0.082 %); assay type: functional
MCF7 [5] = assay: Induction of apoptosis in human MCF7 cells assessed as late apoptotic cells at 0.1 uM incubated for 24 hrs by Annexin V-FITC/Propidium Iodide staining based flow cytometry analysis (reference value: 5.58 %); assay type: functional
[6] = Cytotoxicity against human L02 cells assessed as inhibition of cell growth incubated for 48 hrs by MTT assay; assay type: toxicity, cell-based
[7] = Toxicity in BALB/c mouse transplanted with […] cells assessed as change in creatinine level at 5 to 20 mg/kg, ip administered for 14 days by biochemical analysis; assay type: organism-based; details: in vivo, 336 h, dose 5-20 mg/kg, time 14 day
[8] = Toxicity in BALB/c mouse transplanted with […] cells assessed as change in blood urea nitrogen level at 5 to 20 mg/kg, ip administered for 14 days by biochemical analysis; assay type: organism-based; details: in vivo, 336 h, dose 5-20 mg/kg, time 14 day
[9] = Toxicity in BALB/c mouse transplanted with […] cells assessed as change in serum alanine aminotransferase level at 5 to 20 mg/kg, ip administered for 14 days by biochemical analysis; assay type: organism-based; details: in vivo, 336 h, dose 5-20 mg/kg, time 14 day
[10] = molecular target: T1, DNA topoisomerase 1 (Homo sapiens) (UniProt P11387); assay: Inhibition of Topoisomerase I (unknown origin) assessed as inhibition of relaxation of supercoiled DNA incubated for 90 mins in presence of pBR322 by electrophoretic analysis; details: dose 25-100 µM
T1 sequence (whole entry): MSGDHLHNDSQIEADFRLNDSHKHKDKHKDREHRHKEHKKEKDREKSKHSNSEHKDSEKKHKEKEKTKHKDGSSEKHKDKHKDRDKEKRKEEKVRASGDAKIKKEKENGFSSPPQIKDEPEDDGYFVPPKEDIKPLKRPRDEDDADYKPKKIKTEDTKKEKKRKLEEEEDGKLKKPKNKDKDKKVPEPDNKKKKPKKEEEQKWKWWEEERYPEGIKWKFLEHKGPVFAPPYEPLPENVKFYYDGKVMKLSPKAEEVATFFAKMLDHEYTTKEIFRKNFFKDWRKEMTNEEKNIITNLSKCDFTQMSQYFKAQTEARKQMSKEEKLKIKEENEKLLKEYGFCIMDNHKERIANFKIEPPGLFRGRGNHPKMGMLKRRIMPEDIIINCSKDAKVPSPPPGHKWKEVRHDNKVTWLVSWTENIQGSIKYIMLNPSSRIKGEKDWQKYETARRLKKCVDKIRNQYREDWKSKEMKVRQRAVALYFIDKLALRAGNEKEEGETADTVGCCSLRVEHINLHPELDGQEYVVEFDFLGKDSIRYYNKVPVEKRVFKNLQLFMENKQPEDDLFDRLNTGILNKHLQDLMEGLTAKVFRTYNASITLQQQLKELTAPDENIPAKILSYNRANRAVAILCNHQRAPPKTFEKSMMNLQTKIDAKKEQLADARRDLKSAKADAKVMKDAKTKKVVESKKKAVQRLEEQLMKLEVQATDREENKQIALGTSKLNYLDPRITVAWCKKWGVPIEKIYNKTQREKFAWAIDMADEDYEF

MCF7 [11] = assay: Induction of DNA double-strand breaks in human MCF7 cells assessed as increase in gamma-H2AX incubated for 48 hrs by DAPI staining based confocal laser scanning microscopy; assay type: functional, cell-based; details: dose 0.25-1 µM
MCF7 [12] = assay: Induction of DNA damage in human MCF7 cells at 5 to 10 uM pre-incubated for 24 hrs by Comet assay; assay type: functional, cell-based; details: dose 5-10 µM
[13] = Toxicity in BALB/c mouse transplanted with […] cells assessed as change in lactate dehydrogenase level at 5 to 20 mg/kg, ip administered for 14 days by biochemical analysis; assay type: organism-based; details: in vivo, 336 h, dose 5-20 mg/kg, time 14 day
MCF7 [14] = assay: Induction of apoptosis in human MCF7 cells assessed as increase in cleaved-PARP protein expression incubated for 24 hrs by Western blotting analysis; assay type: functional, cell-based; details: dose 0.1-2 µM
MCF7 [15] = assay: Induction of apoptosis in human MCF7 cells assessed as viable cells at 0.5 uM incubated for 24 hrs by Annexin V-FITC/Propidium Iodide staining based flow cytometry analysis (reference value: 91.8 %); assay type: functional; details: read-out: Activity
4T1 [16] = assay: Antitumor activity against mouse 4T1 cells transplanted in BALB/c mouse assessed as tumor growth inhibition administered for 14 days; assay type: functional; details: dose 5-20 mg/kg, route ip, time 14.0 day
MCF7 [17] = assay: Inhibition of colony formation in human MCF7 cells at 0.075 uM incubated for 2 weeks by crystal violet staining based analysis; assay type: functional, cell-based
MCF7 [18] = assay: Induction of apoptosis in human MCF7 cells assessed as decrease in Bcl-2 protein level incubated for 24 hrs by Western blotting analysis; assay type: functional, cell-based; details: dose 0.1-2 µM
MCF7 [19] = assay: Induction of apoptosis in human MCF7 cells assessed as viable cells at 2 uM incubated for 24 hrs by Annexin V-FITC/Propidium Iodide staining based flow cytometry analysis (reference value: 91.8 %); assay type: functional; details: read-out: Activity
A549 = assay: Antiproliferative activity against human A549 cells assessed as inhibition of cell growth incubated for 48 hrs by MTT assay; assay type: functional, cell-based; details: A549, 48 h
MCF7 [20] = assay: Induction of apoptosis in human MCF7 cells assessed as necrotic cells at 0.5 uM incubated for 24 hrs by Annexin V-FITC/Propidium Iodide staining based flow cytometry analysis (reference value: 0.082 %); assay type: functional
MCF7 [21] = assay: Induction of apoptosis in human MCF7 cells assessed as early apoptotic cells at 0.5 uM incubated for 24 hrs by Annexin V-FITC/Propidium Iodide staining based flow cytometry analysis (reference value: 2.54 %); assay type: functional
MCF7 [22] = assay: Antimigratory activity against human MCF7 cells assessed as wound healing rate at 0.5 uM incubated for 24 hrs by inverted fluorescence microscopic analysis (reference value: 42.5 %); assay type: functional
MCF7 [23] = assay: Antimigratory activity against human MCF7 cells assessed as inhibition of recovery of cells from scratch wounds incubated for 24 hrs by inverted fluorescence microscopic analysis; assay type: functional, cell-based; details: dose 0.125-0.5 µM
MCF7 [24] = assay: Inhibition of colony formation in human MCF7 cells incubated for 2 weeks by crystal violet staining based analysis; assay type: functional, cell-based; details: dose 0.075-1.2 µM
MCF7 [25] = assay: Induction of apoptosis in human MCF7 cells assessed as early apoptotic cells at 0.1 uM incubated for 24 hrs by Annexin V-FITC/Propidium Iodide staining based flow cytometry analysis (reference value: 2.54 %); assay type: functional
[26] = Toxicity in BALB/c mouse transplanted with […] cells assessed as lung damage at 5 to 20 mg/kg, ip administered for 14 days by hematoxylin and eosin staining based analysis; assay type: organism-based; details: in vivo, 336 h, dose 5-20 mg/kg, time 14 day

inhibition [10]: Dose-Dependent Effect
IC50 (A549): 2.02 µM
SMILES: O=C(/C=C/c1ccc(Cl)c([N+](=O)[O-])c1)c1nccc2c1[nH]c1ccccc12
inhibition in vivo at 20 mg/kg (4T1 [1]): 63.9%
Activity [2]: Non-Toxic
Activity (MCF7 [3]): Active
Activity (MCF7 [4]): 0.12%
Activity (MCF7 [5]): 7.06%
IC50 at 48 h [6]: 9.61 µM
Activity [7]: Non-Toxic
Activity [8]: Non-Toxic
Activity [9]: Non-Toxic
Activity (MCF7 [11]): Dose-Dependent Effect
Activity (MCF7 [12]): Active
Activity [13]: Non-Toxic
Activity (MCF7 [14]): Dose-Dependent Effect
viability at 0.5 µM (MCF7 [15]): 71%
TGI (4T1 [16]): Dose-Dependent Effect
inhibition (MCF7 [17]): Active
Activity (MCF7 [18]): Dose-Dependent Effect
viability at 2 µM (MCF7 [19]): 60.6%
Activity (MCF7 [20]): 0.27%
Activity (MCF7 [21]): 20.1%
Activity (MCF7 [22]): 1.4%
Activity (MCF7 [23]): Dose-Dependent Effect
inhibition (MCF7 [24]): Dose-Dependent Effect
Activity (MCF7 [25]): 7.52%
Activity [26]: Non-Toxic
